# Assay results reported in patent US10676477B2, “Factor XIa macrocycle inhibitors bearing a non-aromatic P2' group” (BRISTOL-MYERS SQUIBB COMPANY, priority 2015, dated 2020).
# Counter-ions that a name gives are not always drawn.
# Legend:
# human plasma kallikrein = target: T1, human plasma kallikrein (Homo sapiens, UniProt P03952); assay: Plasma kallikrein enzyme inhibition assay (chromogenic substrate S-2302), Ki; type: biochemical; conditions: purified human plasma kallikrein, substrate S-2302, pH 7.5
# T1 construct: purchased Enzyme Research Laboratories
# Procedure: (§1) The effectiveness of compounds of the present invention as inhibitors of the coagulation Factors XIa, VIIa, IXa, Xa, XIIa, plasma kallikrein chymotrypsin, trypsin, or thrombin, can be determined using a relevant purified serine protease, respectively, and an appropriate synthetic substrate. The rate of hydrolysis of the chromogenic or fluorogenic substrate by the relevant serine protease was measured both in the absence and presence of compounds of the present invention. […] A decrease in the rate of absorbance or fluorescence change in the presence of inhibitor is indicative of enzyme inhibition. Such methods are known to one skilled in the art. The results of this assay are expressed as the inhibitory constant, Ki.
# Plasma kallikrein determinations were made in 0.1 M sodium phosphate buffer at a pH of 7.5 containing 0.1-0.2 M sodium chloride and 0.5% PEG 8000. Determinations were made using purified human plasma kallikrein (Enzyme Research Laboratories) at a final assay concentration of 200 pM and the synthetic substrate S-2302 (H-(D)-Pro-Phe-Arg-pNA; CHROMOGENIX®) at a concentration of 0.00008-0.0004 M.
# (§2) The Michaelis constant, Km, for substrate hydrolysis by each protease, was determined at 25° C. or 37° C. in the absence of inhibitor. Values of Ki were determined by allowing the protease to react with the substrate in the presence of the inhibitor. Reactions were allowed to go for periods of 20-180 minutes (depending on the protease) and the velocities (rate of absorbance or fluorescence change versus time) were measured. The following relationships were used to calculate Ki values: (Vmax*S)/(Km+S) (vo−vs)/vs=I/(Ki*(1+S/Km)) for a competitive inhibitor with one binding site; or vs/vo=A+((B−A)/(1+(IC50/(I)^n)); and Ki=IC50/(1+S/Km) for a competitive inhibitor where: […]
# human Factor XIa = target: T2, human Factor XIa (Homo sapiens, UniProt P03951); assay: Factor XIa enzyme inhibition assay (chromogenic substrate S-2366), Ki; type: biochemical; conditions: purified human Factor XIa, substrate S-2366, pH 7.4
# T2 construct: purchased Haematologic Technologies
# Procedure: as §1
# Factor XIa determinations were made in 50 mM HEPES buffer at pH 7.4 containing 145 mM NaCl, 5 mM KCl, and 0.1% PEG 8000 (polyethylene glycol; JT Baker or Fisher Scientific). Determinations were made using purified human Factor XIa at a final concentration of 25-200 pM (Haematologic Technologies) and the synthetic substrate S-2366 (pyroGlu-Pro-Arg-pNA; CHROMOGENIX® or AnaSpec) at a concentration of 0.0002-0.001 M.
# as §2
# T1 sequence (P03952 391-638 limits assumed): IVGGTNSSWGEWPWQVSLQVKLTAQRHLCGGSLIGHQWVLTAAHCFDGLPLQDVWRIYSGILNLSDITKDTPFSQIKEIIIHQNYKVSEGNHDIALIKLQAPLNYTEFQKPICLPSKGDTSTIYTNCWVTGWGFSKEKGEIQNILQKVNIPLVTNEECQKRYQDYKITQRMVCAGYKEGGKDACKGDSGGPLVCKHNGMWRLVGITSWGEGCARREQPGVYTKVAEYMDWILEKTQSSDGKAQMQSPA
# T1 sequence (P03952 20-390 partner limits assumed): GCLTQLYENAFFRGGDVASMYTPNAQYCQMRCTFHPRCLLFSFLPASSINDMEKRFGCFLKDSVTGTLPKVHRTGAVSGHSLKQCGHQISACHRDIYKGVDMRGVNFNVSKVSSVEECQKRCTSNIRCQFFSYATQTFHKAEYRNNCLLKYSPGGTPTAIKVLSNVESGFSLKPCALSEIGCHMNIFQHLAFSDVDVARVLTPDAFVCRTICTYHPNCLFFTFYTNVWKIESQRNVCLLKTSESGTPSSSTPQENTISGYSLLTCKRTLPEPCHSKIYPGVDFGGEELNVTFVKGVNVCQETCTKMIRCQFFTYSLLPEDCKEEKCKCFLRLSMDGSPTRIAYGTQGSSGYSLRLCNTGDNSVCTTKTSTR
# T2 sequence (P03951 388-625 limits assumed): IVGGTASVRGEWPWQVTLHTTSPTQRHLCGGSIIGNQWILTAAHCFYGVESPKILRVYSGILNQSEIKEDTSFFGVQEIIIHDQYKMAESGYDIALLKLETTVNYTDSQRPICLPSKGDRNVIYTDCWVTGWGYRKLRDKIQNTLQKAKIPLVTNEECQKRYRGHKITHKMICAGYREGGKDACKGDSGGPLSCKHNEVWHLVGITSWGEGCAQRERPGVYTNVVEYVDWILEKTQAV
# T2 sequence (P03951 19-387 partner limits assumed): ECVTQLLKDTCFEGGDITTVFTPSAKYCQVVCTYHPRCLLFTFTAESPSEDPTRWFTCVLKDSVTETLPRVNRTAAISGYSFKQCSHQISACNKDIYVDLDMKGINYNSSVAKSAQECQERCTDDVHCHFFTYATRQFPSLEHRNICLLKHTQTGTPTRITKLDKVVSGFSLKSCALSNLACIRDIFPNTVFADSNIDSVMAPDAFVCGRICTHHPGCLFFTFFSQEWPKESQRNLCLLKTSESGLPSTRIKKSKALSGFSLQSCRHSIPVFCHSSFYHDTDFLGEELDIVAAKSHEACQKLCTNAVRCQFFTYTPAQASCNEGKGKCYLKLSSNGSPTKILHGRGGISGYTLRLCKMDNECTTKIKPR
SMILES,Ki (human plasma kallikrein) [µM],Ki (human Factor XIa) [µM]
"O=C1NCCCCC[C@H](n2cnc(-c3cc(Cl)ccc3-n3cc(Cl)nn3)cc2=O)c2cccc(c2)N2CCNC[C@@H]12 [Example 2, (7S,15S)-15-{4-[5-chloro-2-(4-chloro-1H-1,2,3-triazol-1-yl)phenyl]-6-oxo-1,6-dihydropyrimidin-1-yl}-2,5,9-triazatricyclo[14.3.1.0^2,7]icosa-1(20),16,18-trien-8-one hydrochloride]",7.29,0.542
"CC(C)(C)OC(=O)N1CC(=O)N2c3cccc(c3)[C@@H](n3cnc(-c4cc(Cl)ccc4-n4cc(Cl)nn4)cc3=O)CCCCCNC(=O)[C@H]2C1 [Example 5, tert-butyl (7R,15S)-15-{4-[5-chloro-2-(4-chloro-1H-1,2,3-triazol-1-yl)phenyl]-6-oxo-1,6-dihydropyrimidin-1-yl}-3,8-dioxo-2,5,9-triazatricyclo[14.3.1.0^2,7]icosa-1(20),16,18-triene-5-carboxylate]",6,0.276
"O=C1NCCCCC[C@H](n2cnc(-c3cc(Cl)ccc3-n3cc(Cl)nn3)cc2=O)c2cccc(c2)N2C(=O)CNC[C@@H]12 [Example 6, (7S,15S)-15-{4-[5-chloro-2-(4-chloro-1H-1,2,3-triazol-1-yl)phenyl]-6-oxo-1,6-dihydropyrimidin-1-yl}-2,5,9-triazatricyclo[14.3.1.0^2,7]icosa-1(20),16,18-triene-3,8-dione hydrochloride]",13,6
"O=C1NCCCCC[C@H](n2cnc(-c3cc(Cl)ccc3-n3cc(Cl)nn3)cc2=O)c2cccc(c2)N2C(=O)CNC[C@H]12 [Example 7, (7R,15S)-15-{4-[5-chloro-2-(4-chloro-1H-1,2,3-triazol-1-yl)phenyl]-6-oxo-1,6-dihydropyrimidin-1-yl}-2,5,9-triazatricyclo[14.3.1.0^2,7]icosa-1(20),16,18-triene-3,8-dione hydrochloride]",4.78,0.097
"CC(C)(C)OC(=O)N1CCN2c3cccc(c3)[C@@H](n3cnc(-c4cc(Cl)ccc4-n4cc(Cl)nn4)cc3=O)CCCCCNC(=O)[C@H]2C1 [Example 8, tert-butyl (7R,15S)-15-{4-[5-chloro-2-(4-chloro-1H-1,2,3-triazol-1-yl)phenyl]-6-oxo-1,6-dihydropyrimidin-1-yl}-8-oxo-2,5,9-triazatricyclo[14.3.1.0^2,7]icosa-1(20),16,18-triene-5-carboxylate]",1.09,0.021
"O=C1NCCCCC[C@H](n2cnc(-c3cc(Cl)ccc3-n3cc(Cl)nn3)cc2=O)c2cccc(c2)N2CCNC[C@H]12 [Example 9, (7R,15S)-15-{4-[5-chloro-2-(4-chloro-1H-1,2,3-triazol-1-yl)phenyl]-6-oxo-1,6-dihydropyrimidin-1-yl}-2,5,9-triazatricyclo[14.3.1.0^2,7]icosa-1(20),16,18-trien-8-one hydrochloride]",1.82,0.011
"CC(C)(C)OC(=O)CN1CCN2c3cccc(c3)[C@@H](n3cnc(-c4cc(Cl)ccc4-n4cc(Cl)nn4)cc3=O)CCCCCNC(=O)[C@H]2C1 [Example 11, tert-butyl 2-[(7R,15S)-15-{4-[5-chloro-2-(4-chloro-1H-1,2,3-triazol-1-yl)phenyl]-6-oxo-1,6-dihydropyrimidin-1-yl}-8-oxo-2,5,9-triazatricyclo[14.3.1.0^2,7]icosa-1(20),16,18-trien-5-yl]acetate trifluoromethylacetate]",0.46,0.011
"CC(=O)N1CCN2c3cccc(c3)[C@@H](n3cnc(-c4cc(Cl)ccc4-n4cc(Cl)nn4)cc3=O)CCCCCNC(=O)[C@H]2C1 [Example 12, (7R,15S)-5-acetyl-15-{4-[5-chloro-2-(4-chloro-1H-1,2,3-triazol-1-yl)phenyl]-6-oxo-1,6-dihydropyrimidin-1-yl}-2,5,9-triazatricyclo[14.3.1.0^2,7]icosa-1(20),16,18-trien-8-one]",1.05,0.006
"O=C(O)CN1CCN2c3cccc(c3)[C@@H](n3cnc(-c4cc(Cl)ccc4-n4cc(Cl)nn4)cc3=O)CCCCCNC(=O)[C@H]2C1 [Example 14, 2-[(7R,15S)-15-{4-[5-chloro-2-(4-chloro-1H-1,2,3-triazol-1-yl)phenyl]-6-oxo-1,6-dihydropyrimidin-1-yl}-8-oxo-2,5,9-triazatricyclo[14.3.1.0^2,7]icosa-1(20),16,18-trien-5-yl]acetic acid trifluoromethyl acetate]",0.107,0.005
"CCOC(=O)c1cnc(N2CCN3c4cccc(c4)[C@@H](n4cnc(-c5cc(Cl)ccc5-n5cc(Cl)nn5)cc4=O)CCCCCNC(=O)[C@H]3C2)o1 [Example 17, ethyl 2-[(7R,15S)-15-{4-[5-chloro-2-(4-chloro-1H-1,2,3-triazol-1-yl)phenyl]-6-oxo-1,6-dihydropyrimidin-1-yl}-8-oxo-2,5,9-triazatricyclo[14.3.1.0^2,7]icosa-1(20),16,18-trien-5-yl]-1,3-oxazole-5-carboxylate trifluoromethylacetate]",1.22,0.016

# The remaining compounds from weak to strong by Ki (human plasma kallikrein), led by results:
Ki (human plasma kallikrein) [µM],Ki (human Factor XIa) [µM],SMILES
4.11,0.643,"COC(=O)N1CCN2c3cccc(c3)[C@@H](n3cnc(-c4cc(Cl)ccc4-n4cc(Cl)nn4)cc3=O)CCCCCNC(=O)[C@@H]2C1 [Example 3, methyl (7S,15S)-15-{4-[5-chloro-2-(4-chloro-1H-1,2,3-triazol-1-yl)phenyl]-6-oxo-1,6-dihydropyrimidin-1-yl}-8-oxo-2,5,9-triazatricyclo[14.3.1.0^2,7]icosa-1(20),16,18-triene-5-carboxylate]"
3.47,0.955,"CC(C)(C)OC(=O)N1CCN2c3cccc(c3)[C@@H](n3cnc(-c4cc(Cl)ccc4-n4cc(Cl)nn4)cc3=O)CCCCCNC(=O)[C@@H]2C1 [Example 1, tert-butyl (7S,15S)-15-{4-[5-chloro-2-(4-chloro-1H-1,2,3-triazol-1-yl)phenyl]-6-oxo-1,6-dihydropyrimidin-1-yl}-8-oxo-2,5,9-triazatricyclo[14.3.1.0^2,7]icosa-1(20),16,18-triene-5-carboxylate]"
3.43,0.492,"CC(C)(C)OC(=O)N1CCN2c3cccc(c3)[C@@H](n3cnc(-c4cc(Cl)ccc4-n4cc(Cl)nn4)cc3=O)CCCCNC(=O)[C@H]2C1 [Example 15, tert-butyl (7R,14S)-14-{4-[5-chloro-2-(4-chloro-1H-1,2,3-triazol-1-yl)phenyl]-6-oxo-1,6-dihydropyrimidin-1-yl}-8-oxo-2,5,9-triazatricyclo[13.3.1.0^2,7]nonadeca-1(19),15,17-triene-5-carboxylate, trifluoromethylacetate]"
3.14,9.02,"CC(C)(C)OC(=O)N1CC(=O)N2c3cccc(c3)[C@@H](n3cnc(-c4cc(Cl)ccc4-n4cc(Cl)nn4)cc3=O)CCCCCNC(=O)[C@@H]2C1 [Example 4, tert-butyl (7S,15S)-15-{4-[5-chloro-2-(4-chloro-1H-1,2,3-triazol-1-yl)phenyl]-6-oxo-1,6-dihydropyrimidin-1-yl}-3,8-dioxo-2,5,9-triazatricyclo[14.3.1.0^2,7]icosa-1(20),16,18-triene-5-carboxylate]"
0.862,0.005,"COC(=O)N1CCN2c3cccc(c3)[C@@H](n3cnc(-c4cc(Cl)ccc4-n4cc(Cl)nn4)cc3=O)CCCCCNC(=O)[C@H]2C1 [Example 10, methyl (7R,15S)-15-{4-[5-chloro-2-(4-chloro-1H-1,2,3-triazol-1-yl)phenyl]-6-oxo-1,6-dihydropyrimidin-1-yl}-8-oxo-2,5,9-triazatricyclo[14.3.1.0^2,7]icosa-1(20),16,18-triene-5-carboxylate]"
0.528,0.013,"O=C1NCCCCC[C@H](n2cnc(-c3cc(Cl)ccc3-n3cc(Cl)nn3)cc2=O)c2cccc(c2)N2CCN(C3COC3)C[C@H]12 [Example 16, (7R,15S)-15-{4-[5-chloro-2-(4-chloro-1H-1,2,3-triazol-1-yl)phenyl]-6-oxo-1,6-dihydropyrimidin-1-yl}-5-(oxetan-3-yl)-2,5,9-triazatricyclo[14.3.1.0^2,7]icosa-1(20),16,18-trien-8-one trifluoromethylacetate]"
0.441,0.01,"CN1CCN2c3cccc(c3)[C@@H](n3cnc(-c4cc(Cl)ccc4-n4cc(Cl)nn4)cc3=O)CCCCCNC(=O)[C@H]2C1 [Example 13, (7R,15S)-15-{4-[5-chloro-2-(4-chloro-1H-1,2,3-triazol-1-yl)phenyl]-6-oxo-1,6-dihydropyrimidin-1-yl}-5-methyl-2,5,9-triazatricyclo[14.3.1.0^2,7]icosa-1(20),16,18-trien-8-one, trifluoromethyl acetate]"
